Reference: patent publication US20250186545A1, “RECOMBINANT PROTEIN FOR ULCERATIVE COLITIS TREATMENT OR PREVENTION AND COMPOSITION FOR ULCERATIVE COLITIS TREATMENT OR PREVENTION CONTAINING THE SAME” (NEXEL CO., LTD., priority 2021, published 2025)

Legend:
Format in all cases: in vivo, C57BL/6 mice
[1] = test system: DSS-induced colitis model; experiment: Histopathology (H&E) of large intestinal mucosa: erosion and epithelial hyperplasia; study of FIG. 10
Description: (§1) First, in the case of an animal model for mice in which ulcerative colitis is induced using DSS (Dextran sulfate sodium), bloody stool, weight loss, large intestinal shrinkage, and mucosal ulcers occur, and histologically, damage occurs in large intestinal epithelial cells, so that the intestinal glands of an epithelial layer fall off without inflammation. Further, the amount of f various immune substances in the mucosa increases to cause intestinal inflammation. For this reason, DSS has been widely used to create experimental animal models.
(§2) Specifically, in a DSS-induced colitis model in which 9-week-old female C57BL/6 mice were allowed to freely ingest 2% DSS, an experiment was conducted assuming that one C57BL/6 mouse ingested 5 ml of water containing 2% DSS per day.
(§3) For 7 days, only water containing 2% DSS without any treatment was provided to the mice, and for 5 days after the 7th day, water without 2% DSS was provided, and simultaneously, various comparative substances, including NP-011 protein, were fed at various concentrations by injection into the caudal vein, thereby creating an animal model of inducing ulcerative colitis.
(§4) Lastly, as shown in FIG. 6 and FIG. 10, a third experimental group ‘NP-011’ that is an experimental group was supplied with only water containing 2% DSS from day 0 to day 7, was supplied with plain water from day 7 to day 14, and NP-011 recombinant protein of 320 μg/kg was administered once a day for 5 days starting from day 7, a total of 5 times.
Form the results in FIG. 7 and Table 1, it can be confirmed that the degrees of crypt damage, inflammation severity, and inflammation extent in the mucosa were reduced in the order of MFG-E8 160 μg/kg, NP-011 80 μg/kg, and NP-011 320 μg/kg compared with the positive control group after induction of ulcerative colitis, so that the overall degree of damage to the large intestinal mucosa was lowered.
Then, the tissue fixed with 4% paraformaldehyde was subjected to staining (Hematoxylin & Eosin stain) and histopathological examination by KP&T Co., Ltd. The pathological interpretation was made with reference to INHAND. The degrees of erosion and epithelial hyperplasia in the mucosa of the large intestinal tissue were measured for comparison of lesions in the respective animal model groups, and results thereof are shown in FIG. 11 and Table 2. (Reference-J Toxicol Pathol 2016; 29 (1 Suppl)): 1S-124S)

[2] = test system: DSS-induced colitis model; experiment: Body weight change, study of FIG. 10 (FIG. 12, Tables 4 and 5); details: for Change of original weight: AD group
Description: as §1, §2, §3
Lastly, as shown in FIG. 6 and FIG. 10, a third experimental group ‘NP-011’ that is an experimental group was supplied with only water containing 2% DSS from day 0 to day 7, was supplied with plain water from day 7 to day 14, […] for 5 days starting from day 7, a total of 5 times.
In addition, increase or decrease in body weight was analyzed on the basis of the original body weight, and the level of weight increase or decrease compared with the positive control group was also analyzed.

[3] = test system: DSS-induced colitis model; experiment: Histopathology (H&E) of large intestinal mucosa: crypt damage, inflammation severity, inflammation extent; study of FIG. 6
Description: First, in the case of an animal model for mice in which ulcerative colitis is induced using DSS (Dextran sulfate sodium), bloody stool, weight loss, large intestinal shrinkage, and mucosal ulcers occur, and histologically, damage occurs in large intestinal epithelial cells, so that the intestinal glands of an epithelial layer fall off without inflammation. Further, the amount of f various immune substances in the mucosa increases to cause intestinal inflammation. For this reason, DSS has been widely used to create experimental animal models. Specifically, in a DSS-induced colitis model in which 9-week-old female C57BL/6 mice were allowed to freely ingest 2% DSS, an experiment was conducted assuming that one C57BL/6 mouse ingested 5 ml of water containing 2% DSS per day. For 7 days, only water containing 2% DSS without any treatment was provided to the mice, and for 5 days after the 7th day, water without 2% DSS was provided, and simultaneously, various comparative substances, including NP-011 protein, were fed at various concentrations by injection into the caudal vein, thereby creating an animal model of inducing ulcerative colitis. […] Lastly, as shown in FIG. 6 and FIG. 10, a third experimental group 'NP-011' that is an experimental group was supplied with only water containing 2% DSS from day 0 to day 7, was supplied with plain water from day 7 to day 14, and NP-011 recombinant protein of 320 μg/kg was administered once a day for 5 days starting from day 7, a total of 5 times. First, using the animal models corresponding to the 'NTC' control group, the 'UC CONTROL' control group, the 'MFG-E8' experimental group, the 'NP-011' second experimental group, and the 'NP-011' third experimental group, for each animal model group, the cecum was removed from a large intestinal tissue, and 1 to 2 cm of the proximal and 1 cm of the anus were secured and fixed with 4% paraformaldehyde. Then, the tissue fixed with 4% paraformaldehyde was subjected to staining (Hematoxylin & Eosin stain) and histopathological examination by KP&T Co., Ltd. The pathological interpretation was made with reference to […] (International Harmonization of Nomenclature and Diagnostic Criteria for Lesions) which is an international standard toxicology glossary. The degrees of crypt damage, inflammation severity, and inflammation extent in the mucosa of the large intestinal tissue were measured for comparison in the respective animal model groups, and results thereof are shown in FIG. 7 and Table 1. (Reference-J Toxicol Pathol 2016; 29 (1 Suppl): 1S-[…])

[4] = test system: DSS-induced colitis model; experiment: Colon length, study of FIG. 6 (FIG. 9); details: MFG-E8 160 μg/kg; 3 days after the last administration
Description: First, in the case of an animal model for mice in which ulcerative colitis is induced using DSS (Dextran sulfate sodium), bloody stool, weight loss, large intestinal shrinkage, and mucosal ulcers occur, and histologically, damage occurs in large intestinal epithelial cells, so that the intestinal glands of an epithelial layer fall off without inflammation. Further, the amount of f various immune substances in the mucosa increases to cause intestinal inflammation. For this reason, DSS has been widely used to create experimental animal models. […]
First, using the animal models corresponding to the \NTC′ control group, the ‘UC CONTROL’ control group, the ‘MFG-E8’ experimental group, the ‘NP-011’ second experimental group, and the ‘NP-011’ third experimental group, the large intestine was extracted separately for each animal model group, the colon length was analyzed, and the results thereof are shown in FIG. 9.
Specifically, to analyze the colon length, each animal model was euthanized by gradual increase in carbon dioxide 3 days after the last administration, and the large intestine was extracted. The extracted large intestine was photographed with a length measuring device (30 cm ruler), and the obtained photograph was quantified using image J.

[5] = test system: DSS-induced colitis model; experiment: Body weight change, study of FIG. 6 (FIG. 8, Table 3); details: MFG-E8 160 μg/kg
Description: as §1, §2, §3, §4
First, using the animal models corresponding to the ‘NTC’ control group, the ‘UC CONTROL’ control group, the ‘MFG-E8’ experimental group, the ‘NP-011’ second experimental group, and the ‘NP-011’ third experimental group, body weight was measured daily for each animal model group before drug administration to reduce errors due to the administration.
In addition, increase or decrease in body weight was analyzed compared with the positive control group, and comprehensive results thereof are shown in FIG. 8 and Table 3.

[6] = MGF-E8 160 μg/kg, once a day x5 from day 7

Molecule: Adalimumab
- Epithelial hyperplasia score ([1]; AD 4 mg/kg): 4.2
- Erosion, mucosa ([1]; AD 4 mg/kg): 0.8
- Group total average ([1]; AD 4 mg/kg, erosion + hyperplasia): 5.0
- degrees of erosion and epidermal hyperplasia in the mucosa of large intestinal tissues ([1]; Adalimumab group): reduced
- Dunnett's multiple comparisons test UC VS AD, Summary (body weight) ([2]; 10 days): ** (** P<0.01)
- weight loss ([2]; Adalimumab group, Cyclosporine A group, NP-011 groups (20 to 80 μg/kg)): weight loss was observed
- Change of original weight ([2]; Day 1): 0.161 g
- Change of original weight ([2]; Day 2): 0.237 g
- Change of original weight ([2]; Day 3): 0.438 g
- Change of original weight ([2]; Day 4): 0.411 g
- Change of original weight ([2]; Day 5): -0.217 g
- Change of original weight ([2]; Day 6): -0.846 g
- Change of original weight ([2]; Day 7): -1.464 g
- Change of original weight ([2]; Day 8): -1.702 g
- Change of original weight ([2]; Day 9): -1.683 g
- Change of original weight ([2]; Day 10): -1.444 g
- Dunnett's multiple comparisons test UC VS AD, Summary (body weight) ([2]; Day 11): **** (**** P<0.0001)
- Change of original weight ([2]; Day 11): -0.471 g
- Dunnett's multiple comparisons test UC VS AD, Summary (body weight) ([2]; Day 12): **** (**** P<0.0001)
- Change of original weight ([2]; Day 12): -0.035 g
- Dunnett's multiple comparisons test UC VS AD, Summary (body weight) ([2]; Day 13): **** (**** P<0.0001)
- Change of original weight ([2]; Day 13): -0.467 g

B1: milk fat globule-EGF factor 8 (protein, UniProt Q08431 24-387, looked up)
Lactadherin: LDICSKNPCHNGGLCEEISQEVRGDVFPSYTCTCLKGYAGNHCETKCVEPLGLENGNIANSQIAASSVRVTFLGLQHWVPELARLNRAGMVNAWTPSSNDDNPWIQVNLLRRMWVTGVVTQGASRLASHEYLKAFKVAYSLNGHEFDFIHDVNKKHKEFVGNWNKNAVHVNLFETPVEAQYVRLYPTSCHTACTLRFELLGCELNGCANPLGLKNNSIPDKQITASSSYKTWGLHLFSWNPSYARLDKQGNFNAWVAGSYGNDQWLQVDLGSSKEVTGIITQGARNFGSVQFVASYKVAYSNDSANWTEYQDPRTGSSKIFPGNWDNHSHKKNLFETPILARYVRILPVAWHNRIALRLELLGC
notes: milk fat globule-EGF factor 8 (MFG-E8) protein, comparator
- degrees of crypt damage, inflammation severity, and inflammation extent in the mucosa compared with the positive control group ([3]; MFG-E8 160 μg/kg): reduced
- Crypt Damage [3, 6]: 2.9
- Inflammation Extent [3, 6]: 1.2
- Inflammation Severity ([3]; MGF-E8 160 μg/kg, once a day x5 from day 7, caudal vein): 1.1
- Group total average ([3]; MGF-E8 160 μg/kg, sum of severity, extent, crypt damage): 5.2
- colon length shrinkage suppression effect compared with the non-administration control group [4]: statistically significant increase in the colon length shrinkage suppression effect
- Dunnett's multiple comparisons test UC VS MFG-E8, Summary (body weight) ([5]; Day 7): ns
- Dunnett's multiple comparisons test UC VS MFG-E8, Summary (body weight) ([5]; Day 8): ns
- Dunnett's multiple comparisons test UC VS MFG-E8, Summary (body weight) ([5]; Day 9): ns
- Dunnett's multiple comparisons test UC VS MFG-E8, Summary (body weight) ([5]; Day 10): ns
- Dunnett's multiple comparisons test UC VS MFG-E8, Summary (body weight) ([5]; Day 11): ns
